Tests used:
SHP2 = molecular target: T1, SHP2 (Homo sapiens, UniProt Q06124); test: Cellular thermal shift assay (CETSA), SHP2 immunoblot; assay type: binding; details: 100 μM CNBCA, cell lysate
T1 construct: endogenous in cells
T1 sequence (Q06124 1-593): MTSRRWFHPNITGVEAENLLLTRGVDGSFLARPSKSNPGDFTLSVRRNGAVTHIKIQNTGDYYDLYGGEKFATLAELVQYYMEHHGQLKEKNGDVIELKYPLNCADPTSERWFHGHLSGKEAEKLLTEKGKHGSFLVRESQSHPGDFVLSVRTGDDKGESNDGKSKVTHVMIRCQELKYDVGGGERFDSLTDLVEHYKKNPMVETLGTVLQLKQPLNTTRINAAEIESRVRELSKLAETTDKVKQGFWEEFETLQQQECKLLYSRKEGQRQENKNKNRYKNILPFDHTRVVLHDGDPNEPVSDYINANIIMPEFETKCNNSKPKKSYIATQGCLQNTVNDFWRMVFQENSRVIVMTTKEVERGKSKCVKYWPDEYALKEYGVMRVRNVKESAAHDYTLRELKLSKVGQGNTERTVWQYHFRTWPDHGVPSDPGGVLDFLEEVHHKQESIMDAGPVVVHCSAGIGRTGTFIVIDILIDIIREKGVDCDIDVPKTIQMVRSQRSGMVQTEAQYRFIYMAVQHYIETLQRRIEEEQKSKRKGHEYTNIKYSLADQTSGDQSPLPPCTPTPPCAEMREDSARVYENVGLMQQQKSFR
Source text: First, we used the cellular thermal shift assay (CETSA) to show whether CNBCA binds to endogenous full-length SHP2 under cellular contexts. The CETSA assay is based on the principle that specific inhibitors bind to a target protein and confer relative stability from heat-induced denaturation and precipitation when compared to a nontarget protein present in the same milieu.[34] Accordingly, we performed CETSA to test the effect of CNBCA on the SHP2 protein stability and compared it with the nontarget PTP1B protein as described in the materials and methods.
After heat treatment, supernatants were analyzed by immunoblotting (IB) for SHP2 and the nontarget phosphatase PTP1B. […] To provide semiquantitative data, band densities of both SHP2 and PTP1B were measured and presented as bar graph. […] On the other hand, the nontarget protein PTP1B was reduced to approximately 50% at 49 °C, to 25% at 55 °C, and to less than 10% at 58 °C (Figure 3B and D).
For the CETSA study, total protein extracts (TPE) prepared from two breast cancer cells, the triple-negative MDA-MB468 and the HER2-positive JIMT-1 cells, were used. Briefly, TPE from the two cell lines were cleared by centrifugation, mixed with CNBCA at 100 μM concentration (the maximum amount used in the IC50 studies), and incubated for 10 min at room temperature to allow binding. The mixture was then divided into 100 μL aliquots, treated with heat for 10 min at different temperatures, ranging from 37 to 64 °C that differ by 3 °C intervals, cooled on ice for 10 min, centrifuged at 20,000g for 20 min to remove precipitated proteins, and the supernatants analyzed by immunoblotting (IB) for SHP2 and the nontarget PTP, PTP1B. Aliquots that were mixed with CNBCA, but not treated with heat were used as positive controls for comparison.

FL-SHP2 = molecular target: T2, FL-SHP2 (Homo sapiens, UniProt Q06124); test: PTPase assay on FLAG-tagged full-length SHP2 immunoprecipitated from MDA-MB468 cells; assay type: biochemical; details: FLAG-tagged FL-SHP2 on beads from MDA-MB468 cells, 20 μM DiFMUP
T2 construct: whether CNBCA is also effective against full-length SHP2 (FL-SHP2); expressed in transfected cells; host or cells: MDA-MB468
T2 sequence (Q06124 1-593): T1 sequence (Q06124 1-593)
Source text: To confirm efficiency of the expression, we conducted IB analysis of total protein extracts (TPE) prepared from the noncancerous MEF cells (mouse embryo fibroblasts), the MDA-MB468 BC cells that overexpress EGFR, and the BT474 BC cells that overexpress HER2. […] We also performed HER2 and EGFR IB analyses, which confirmed overexpression of these RTKs in the BC cells, but not in the MEF cells. […] Next, FL-SHP2 was immunoprecipitated (IP) with anti-FLAG antibody from the TPEs of the three cells (Figure 3F) and used for determining the activation state while still bound to protein-A sepharose beads, as described in the materials and methods. […] We thus used SHP2 expressed in BC cells to test the inhibitory effect of CNBCA on FL-SHP2. […]
For determining the inhibitory effect of CNBCA on FL-SHP2, a FLAG-tagged protein ectopically expressed in the EGFR overexpressing MDA-MB468 cells[8],[15] was used as an enzyme. […] After 20 min of incubation at 37 °C, 100 μL of the supernatant from each sample was transferred to 96-well plates, and fluorescence intensity measure as above, using the Synergy 4 plate reader. The resulting data was then analyzed with the Graphpad Prism software to draw the graph and determine the IC50 value.

CCCCCCCCCOc1ccc(-c2ccc(C(=O)O)cc2)cc1CCCC(=O)O [CNBCA, 3′-(3-carboxypropyl)-4′-(nonyloxy)-[1,1′-biphenyl]-4-carboxylic acid]
SHP2 stabilized in solution (band density) (SHP2; heat 49 °C 10 min): ~100% | SHP2 stabilized in solution (band density) (SHP2; heat 52 °C 10 min): 95% | SHP2 stabilized in solution (band density) (SHP2; heat 55 °C 10 min): 70% | SHP2 stabilized in solution (band density) (SHP2; heat 58 °C 10 min): 45% | IC50 (FL-SHP2): 615 nM
